Measurements: the CheMixHub ionic liquid set

Experiment: xn = mol fraction of the nth substance listed

CCCCCCCCCCCCOS(=O)(=O)[O-].[Na+] + CCCO + O
298 K, 100 kPa, frequency 0.001 MHz
Conditions	electrical conductivity [S/m]
x2 = 0.01543, x1 = 3.435e-05	0.0146
x2 = 0.02615, x3 = 0.9738	0.033
x2 = 0.04737, x3 = 0.9525	0.0508
x2 = 0.07172, x3 = 0.9277	0.102
x2 = 0.07173, x3 = 0.9279	0.0751

298.15 K, 101 kPa
Conditions	electrical conductivity [S/m]
x2 = 0, x1 = 3.24e-06	0.001447
x2 = 0, x1 = 8.11e-06	0.003433
x2 = 0, x1 = 1.64e-05	0.006697
x2 = 0, x1 = 2.505e-05	0.01006
x2 = 0, x1 = 2.991e-05	0.0119
x2 = 0, x1 = 3.478e-05	0.01378
x2 = 0, x1 = 3.964e-05	0.01564
x2 = 0, x1 = 5.063e-05	0.01999
x2 = 0, x1 = 6.198e-05	0.02434
x2 = 0, x1 = 7.406e-05	0.02896
x2 = 0, x1 = 8.09e-05	0.03151
x2 = 0, x1 = 8.667e-05	0.03369
x2 = 0, x1 = 9.135e-05	0.03548
x2 = 0, x1 = 9.694e-05	0.03753
x2 = 0, x1 = 0.0001016	0.03931
x2 = 0, x1 = 0.000107	0.04131
x2 = 0, x1 = 0.0001175	0.0452
x2 = 0, x1 = 0.0001223	0.047
x2 = 0, x1 = 0.0001268	0.04874
x2 = 0, x1 = 0.0001315	0.0504
x2 = 0, x1 = 0.0001364	0.05202
x2 = 0, x1 = 0.0001411	0.05353
x2 = 0, x1 = 0.0001454	0.05471
x2 = 0, x1 = 0.0001541	0.05656
x2 = 0, x1 = 0.0001586	0.05737
x2 = 0, x1 = 0.0001631	0.05814
x2 = 0, x1 = 0.0001692	0.05912
x2 = 0, x1 = 0.0001735	0.05977
x2 = 0, x1 = 0.000178	0.06043
x2 = 0, x1 = 0.0001825	0.06112
x2 = 0, x1 = 0.0001892	0.06206
x2 = 0, x1 = 0.0001935	0.06269
x2 = 0, x1 = 0.0002002	0.06378
x2 = 0, x1 = 0.0002048	0.06444
x2 = 0, x1 = 0.0002097	0.06508
x2 = 0, x1 = 0.000214	0.06575
x2 = 0.007626, x1 = 0.0004015	0.09227
x2 = 0.007627, x1 = 0.0002602	0.06737
x2 = 0.007627, x1 = 0.0002829	0.07143
x2 = 0.007627, x1 = 0.0003124	0.07668
x2 = 0.007627, x1 = 0.0003456	0.08254
x2 = 0.007628, x1 = 0.0001267	0.04228
x2 = 0.007628, x1 = 0.000135	0.04399
x2 = 0.007628, x1 = 0.0001447	0.04592
x2 = 0.007628, x1 = 0.0001683	0.05047
x2 = 0.007628, x1 = 0.0001845	0.05346
x2 = 0.007628, x1 = 0.0002013	0.05663
x2 = 0.007628, x1 = 0.0002199	0.06003
x2 = 0.007628, x1 = 0.0002404	0.06381
x2 = 0.007629, x1 = 1.192e-05	0.004556
x2 = 0.007629, x1 = 1.321e-05	0.005113
x2 = 0.007629, x1 = 1.651e-05	0.00628
x2 = 0.007629, x1 = 1.962e-05	0.007449
x2 = 0.007629, x1 = 2.274e-05	0.00856
x2 = 0.007629, x1 = 2.623e-05	0.009738
x2 = 0.007629, x1 = 2.934e-05	0.01087
x2 = 0.007629, x1 = 3.228e-05	0.01189
x2 = 0.007629, x1 = 3.595e-05	0.01317
x2 = 0.007629, x1 = 3.925e-05	0.01435
x2 = 0.007629, x1 = 4.255e-05	0.01551
x2 = 0.007629, x1 = 4.823e-05	0.0178
x2 = 0.007629, x1 = 5.135e-05	0.0189
x2 = 0.007629, x1 = 5.465e-05	0.02006
x2 = 0.007629, x1 = 5.795e-05	0.02124
x2 = 0.007629, x1 = 6.474e-05	0.02366
x2 = 0.007629, x1 = 6.804e-05	0.02483
x2 = 0.007629, x1 = 7.152e-05	0.02603
x2 = 0.007629, x1 = 7.464e-05	0.02715
x2 = 0.007629, x1 = 7.776e-05	0.02824
x2 = 0.007629, x1 = 8.088e-05	0.02934
x2 = 0.007629, x1 = 8.418e-05	0.03045
x2 = 0.007629, x1 = 8.95e-05	0.03235
x2 = 0.007629, x1 = 9.426e-05	0.03397
x2 = 0.007629, x1 = 9.995e-05	0.03577
x2 = 0.007629, x1 = 0.0001049	0.03716
x2 = 0.007629, x1 = 0.0001146	0.03955
x2 = 0.01553, x1 = 4.687e-05	0.01553
x2 = 0.01553, x1 = 5.322e-05	0.01769
x2 = 0.01553, x1 = 7.282e-05	0.0238
x2 = 0.01553, x1 = 7.842e-05	0.02558
x2 = 0.01553, x1 = 8.757e-05	0.02822
x2 = 0.01553, x1 = 9.765e-05	0.03081
x2 = 0.01553, x1 = 0.0001083	0.03351
x2 = 0.01553, x1 = 0.0001201	0.03619
x2 = 0.01553, x1 = 0.0001298	0.03847
x2 = 0.01553, x1 = 0.0001533	0.04391
x2 = 0.01553, x1 = 0.0001677	0.04711
x2 = 0.01553, x1 = 0.0001815	0.05015
x2 = 0.01553, x1 = 0.0001979	0.05361
x2 = 0.01553, x1 = 0.0002319	0.06058
x2 = 0.01553, x1 = 0.0002511	0.06442
x2 = 0.01553, x1 = 0.0002703	0.06822
x2 = 0.01553, x1 = 0.0002877	0.0716
x2 = 0.01553, x1 = 0.0003082	0.07551
x2 = 0.01554, x1 = 5.98e-06	0.002351
x2 = 0.01554, x1 = 1.176e-05	0.004274
x2 = 0.01554, x1 = 1.811e-05	0.006392
x2 = 0.01554, x1 = 2.428e-05	0.008288
x2 = 0.01554, x1 = 2.894e-05	0.009768
x2 = 0.01554, x1 = 3.492e-05	0.01173

CCCCCCCCn1cc[n+](C)c1.[Cl-] + CCO
viscosity [mPa·s], 101 kPa
Conditions	x2 = 0.0449	x2 = 0.1305	x2 = 0.6858	x2 = 0.8809	x2 = 0.9794
298.15 K	12600	5400	–	–	–
313.15 K	–	–	14.6	–	1.061
328.15 K	830	–	9.12	1.997	0.819

CC[n+]1ccn(C)c1.N#C[S-] + CCO
101 kPa
Conditions	viscosity [mPa·s]
283.15 K, x1 = 0.8045	22.86
283.15 K, x1 = 0.8971	29.28
293.15 K, x1 = 0.8971	20.53
303.15 K, x1 = 0.0504	1.31
303.15 K, x1 = 0.2012	2.31
303.15 K, x1 = 0.951	17.12
313.15 K, x1 = 0.0504	1.1
313.15 K, x1 = 0.6016	6.04
313.15 K, x1 = 0.7018	7.47
313.15 K, x1 = 0.8971	11.5
313.15 K, x1 = 1	14.3
323.15 K, x1 = 0.7018	6.02
323.15 K, x1 = 0.951	10.17

C[N+](C)(C)CCC[N+]1(C)CCCCC1.N#C[N-]C#N.N#C[N-]C#N + CCO
viscosity [mPa·s], 100 kPa
Conditions	x1 = 0.0999	x1 = 0.2001	x1 = 0.3002	x1 = 0.3999	x1 = 0.5002	x1 = 0.6001	x1 = 0.7003	x1 = 0.7998	x1 = 0.8995	x1 = 1
293.15 K	6.82	19.7	47.6	115	280	596	1088	1716	2737	4503
303.15 K	5.39	15	33	73.3	164	330	545	830	1240	1837
313.15 K	4.38	11.6	24.1	49.6	106	211	310	461	624	860
323.15 K	3.68	9.19	18.1	35.2	70.5	132	192	267	360	460
333.15 K	3.18	7.55	14.1	26.2	50.7	85.9	126	171	219	270

CCOC(C)(C)C + CCO + CCOS(=O)(=O)[O-].CC[n+]1ccn(C)c1
298.15 K, 101 kPa
Conditions	viscosity [mPa·s]
x2 = 0.1248, x1 = 0.0174	63
x2 = 0.1973, x1 = 0.0324	46.3
x2 = 0.3162, x1 = 0.029	30.74
x2 = 0.395, x1 = 0.0475	21.09
x2 = 0.4866, x1 = 0.0465	14.2
x2 = 0.5653, x1 = 0.0501	9.77
x2 = 0.6539, x1 = 0.3132	0.878
x2 = 0.6567, x1 = 0.0845	5.13
x2 = 0.6872, x1 = 0.0848	4.39
x2 = 0.6916, x1 = 0.2368	1.352
x2 = 0.6923, x1 = 0.035	5.65
x2 = 0.7064, x1 = 0.1236	3.102
x2 = 0.7089, x1 = 0.2556	0.974
x2 = 0.7162, x1 = 0.1736	1.937
x2 = 0.7254, x1 = 0.0338	4.79
x2 = 0.7605, x1 = 0.0564	3.565
x2 = 0.7622, x1 = 0.1589	1.568
x2 = 0.7999, x1 = 0.077	2.401
x2 = 0.8182, x1 = 0.1407	1.208
x2 = 0.841, x1 = 0.072	1.86
x2 = 0.902, x1 = 0.0527	1.428
